Like-named read-outs stand apart in the source and are kept apart here. Marks after values point to notes of the source that are not given here. Each block holds one compound with its values, some of them ahead of it.
What was measured:
[1] = system: Leukemia subpanel tumor cell lines; assay: In vitro anticancer screening, five concentration levels, leukemia subpanel; assay type: cell-based, human
Experimental: (§1) Anticancer evaluation of the newly synthesized compound was performed by a screening in vitro with 60 human cell lines for primary anticancer screening, representing leukemia, melanoma and cancers of the lung, colon, brain, ovary, breast, prostate and kidney. The screening was a two-stage process, beginning with the evaluation of all compounds against the 60 cell lines at a single-dose of 10 μM. […] Therefore this compound passed on to further evaluation at five concentration levels ranging from 0.01 μM to 100 μM.

[2] = system: Lung subpanel tumor cell lines; assay: In vitro anticancer screening, five concentration levels, lung subpanel; assay type: cell-based, human
Experimental: as §1

[3] = system: Colon subpanel tumor cell lines; assay: In vitro anticancer screening, five concentration levels, colon subpanel; assay type: cell-based, human
Experimental: as §1

[4] = system: CNS subpanel tumor cell lines; assay: In vitro anticancer screening, five concentration levels, CNS subpanel; assay type: cell-based, human
Experimental: as §1

[5] = system: Melanoma subpanel tumor cell lines; assay: In vitro anticancer screening, five concentration levels, melanoma subpanel; assay type: cell-based, human
Experimental: as §1

[6] = system: Ovarian subpanel tumor cell lines; assay: In vitro anticancer screening, five concentration levels, ovarian subpanel; assay type: cell-based, human
Experimental: as §1

[7] = system: Renal subpanel tumor cell lines; assay: In vitro anticancer screening, five concentration levels, renal subpanel; assay type: cell-based, human
Experimental: as §1

[8] = system: Prostate subpanel tumor cell lines; assay: In vitro anticancer screening, five concentration levels, prostate subpanel; assay type: cell-based, human
Experimental: as §1

[9] = system: Breast subpanel tumor cell lines; assay: In vitro anticancer screening, five concentration levels, breast subpanel; assay type: cell-based, human
Experimental: as §1

[10] = system: 60 human cell lines; assay: In vitro anticancer screening, full panel; assay type: cell-based; conditions: for GI50: Homo sapiens, read-out: GI50 MG-MID (full panel mean-graph midpoint)
Experimental: as §1

[11] = system: Sprague-Dawley rats; assay: In vivo acute toxicity (LD50); design: species or system rat
Experimental: (§2) Adult male Sprague-Dawley rats (180±20 g, body weight), were purchased from the animal house of the National Research Centre, Egypt. They were maintained for 1 week under environmentally controlled conditions (constant temperature, 25-27° C., with 12-hour light/dark cycles) for 1 week prior to starting the experiments. The […] were housed with 10 animals per cage, and were provided with tap water and commercial diets.
Acute toxicity of the target compound was determined in vivo according to previously reported methods in the literature. Briefly, animals were divided into groups of 10 rats each, and administered single intravenous (IV) doses, graded ranging from 0 to 1200 μg/kg, of the synthesized compound. Control animals received vehicle alone (dimethyl sulfoxide, DMSO).
The mortality of the animals was monitored for up to 1 month posttreatment. […] Acute toxicity was considered by the in vivo assay.

[12] = system: DENA-induced liver cancer in rats; assay: Liver function in DENA-induced liver cancer in rats; assay type: in vivo, rat; conditions: for ALP / ALT / AST / Bili (total bilirubin): serum, mean ± SE
Experimental: as §2
Diethylnitrosamine (DENA) and carbon tetrachloride (CCl4) were purchased from Sigma-Aldrich Chemical Corp., (St. Louis, Mo., USA). The DENA was dissolved in normal saline and injected as a single dose (200 mg/kg, intraperitoneally, i.p.) to initiate hepatic carcinogenesis. The CCl4 was administered as a single dose (2 ml/kg) by gavage as a 1:1 dilution in corn oil to stimulate liver cell proliferation and regeneration. The aspartate transaminase (AST), alanine transaminase (ALT), alkaline phosphatase (ALP), and total bilirubin (Bili) kits were obtained from BioMérieux (France).
Adult male Sprague-Dawley rats were divided into groups of eight animals each. Group 1 rats (untreated control) were fed a standard diet and given water throughout the experiment. Group 2 rats (treated with DENA) were injected with a single dose of DENA (200 mg/kg, i.p.), and 2 weeks later received a single dose of CCl4 (2 ml/kg) by gavage as 1:1 dilution in corn oil. Group 3 rats (treated with DENA and target compound) consisted of rats that were treated as the rats in Group 2, but also were treated with target compound administered IV at a dose that was 1/10 the LD50, for 10 consecutive days.
At the end of the treatment protocol on day 30 after the last injection, the animals were anesthetized with ether, and blood samples were drawn from the orbital venous plexus. The serum was separated by centrifugation for 5 minutes at 1500 g, and stored at −20° C. until analyzed. This serum was used to determine the liver function by assaying the ALT, AST, and ALP activities and total bilirubin spectrophotometrically according to the manufacturer's instructions using reagent kits obtained from […]. Liver function was measured, comparing results for control rats with results in DENA-treated and in target compound-treated rats. The results were reported as mean±standard error of the mean (SE). Statistical significance was analyzed using a one-way analysis of variance (ANOVA) followed by the Student's t-test, while the differences were considered to be significant at p<0.05.

[13] = system: DENA-induced liver cancer in rats; assay: Histopathological examination of rat liver sections; assay type: in vivo; conditions: H&E staining
Description: For the histopathological examination, the animals were euthanized by decapitation and their livers were rapidly excised, weighed, and washed with saline. Portions of the livers were fixed in 10% formalin in saline, embedded in paraffin wax, serially sectioned, and stained. A standard method of hematoxylin and eosin (H&E) staining was also used.

[14] = DENA/CCl4 rats treated IV at 1/10 LD50 for 10 days, day 30 after last injection
[15] = rats given DENA 200 mg/kg i.p. then CCl4, no target compound

SMILES: COc1ccc(-c2nn(-c3cccc(Cl)c3)cc2/C=C2\C(=N)N(c3ccccc3)N=C2N)cc1 [Compound 2, (4Z)-4-((1-(3-Chlorophenyl)-3-(4-methoxyphenyl)-1H-pyrazol-4-yl)methylene)-4,5-dihydro-5-imino-1-phenyl-1H-pyrazol-3-amine]
- Selectivity ratio, Leukemia [1]: 5.86
- GI50 ([1]; Homo sapiens, read-out: Median growth inhibitory concentration GI50, Leukemia): 610 nM
- Selectivity ratio, Lung [2]: 0.49
- GI50 ([2]; Homo sapiens, read-out: Median growth inhibitory concentration GI50, Lung): 7390 nM
- Selectivity ratio, Colon [3]: 2.86
- GI50 ([3]; Homo sapiens, read-out: Median growth inhibitory concentration GI50, Colon): 1250 nM
- Selectivity ratio, CNS [4]: 0.63
- GI50 ([4]; Homo sapiens, read-out: Median growth inhibitory concentration GI50, CNS): 5700 nM
- Selectivity ratio, Melanoma [5]: 1.27
- GI50 ([5]; Homo sapiens, read-out: Median growth inhibitory concentration GI50, Melanoma): 2830 nM
- Selectivity ratio, Ovarian [6]: 0.59
- GI50 ([6]; Homo sapiens, read-out: Median growth inhibitory concentration GI50, Ovarian): 6110 nM
- Selectivity ratio, Renal [7]: 0.65
- GI50 ([7]; Homo sapiens, read-out: Median growth inhibitory concentration GI50, Renal): 5550 nM
- Selectivity ratio, Prostate [8]: 5.19
- GI50 ([8]; Homo sapiens, read-out: Median growth inhibitory concentration GI50, Prostate): 690 nM
- Selectivity ratio, Breast [9]: 1.68
- GI50 ([9]; Homo sapiens, read-out: Median growth inhibitory concentration GI50, Breast): 2130 nM
- GI50 ([10]; 60 cell): 3590 nM
- Growth inhibition, one dose mean graph ([10]; single-dose of 10 μM, 60 cell lines): significant growth inhibition
- Median lethal dose (LD50) ([11]; single IV dose, mortality monitored up to 1 month): 195 μg/kg body weight
- Acute toxicity (in words) ([11]; single IV doses 0 to 1200 μg/kg): no marked acute toxicity
- AST, ALT and ALP activities and total bilirubin level compared to DENA-treated rats (in words) ([12]; dose of 1/10 of the LD50): substantial normalization
- ALP [12, 14]: 124.00 ± 12.00^b U/L
- ALT [12, 14]: 49.00 ± 4.6^b U/L
- AST [12, 14]: 70.00 ± 7.2^b U/L
- Bili (total bilirubin) [12, 14]: 1.63 ± 0.16^b mg/dl
- Liver histology (H&E) of DENA-rats treated with target compound ([13]; listed as target): improvement in the hepatic pattern associated with normal hepatic architecture
- Liver histology (H&E) of DENA-rats treated with target compound ([13]; listed as target compound): normal hepatic architecture

- GI50 ([10]; full panel, 60 cell lines): 1900 nM
SMILES: CNC(=O)c1cc(Oc2ccc(NC(=O)Nc3ccc(Cl)c(C(F)(F)F)c3)cc2)ccn1 [Sorafenib, sorafenib, reference compound]

SMILES: CCN(CC)N=O [DENA, Diethylnitrosamine, reference compound]
- ALP [12, 15]: 215.00 ± 15.7^a U/L
- ALT [12, 15]: 95.00 ± 7.0^a U/L
- AST [12, 15]: 110.00 ± 7.8^a U/L
- Bili (total bilirubin) [12, 15]: 2.90 ± 0.20^a mg/dl
